The values below come from patent US8309299B2, “Combination therapy and method for assessing resistance to treatment” (Hoffmann-La Roche Inc., priority 2010, dated 2012).

For test [1], the system named is U87MG (glioblastoma) xenograft. The experiment in a line: in vivo activity in U87MG xenograft model. On the set-up: species or system human. Conditions: U87MG xenograft in nude mice; 10 mg/kg once daily for 21 days. How it is done:
(§1) The human cancer cell lines U87MG and LOX were purchased from the American Type Culture Collection. Xenografts were implanted in female nu/nu (nude) mice obtained from Charles River Laboratories (Wilmington, Mass.) (10 mice/group) when they were approximately 8 to 14 weeks old and weighed approximately 23 to 25 grams. All animal experiments were performed in accordance with protocols approved by the Roche Animal Care and Use Committee (RACUC). For xenograft implantation, cells were harvested using 0.05% trypsin, washed and centrifuged in culture medium, and resuspended in either a 1:1 mixture of phosphate buffered saline (PBS) and Matrigel (U87MG) or PBS alone (LOX) at a concentration of 1.5-5×10^7 cells per mL. A volume of 0.2 mL cell suspension (5×10^6 cells for U87MG, 2×10^6 cells for LOX) per mouse was implanted subcutaneously in the right flank. Tumors were allowed to grow for 8 to 26 days post implant when mean volume reached ˜100-150 mm^3, after which animals were randomized into treatment groups: U87MG xenograft mice receiving vehicle (Klucel and Tween) once daily, U87MG xenograft mice receiving Compound I at 10 mg/kg once daily for 21 days, LOX xenograft mice receiving vehicle (Klucel and Tween) once daily, and LOX xenograft mice receiving Compound I at 10 mg/kg once daily for 11 days.

Test [2] relates to A549 cells overexpressing IL8 (xenograft). Put plainly: in vivo activity in IL8-overexpressing A549 xenograft model. On the set-up: species or system human. The conditions noted are these: Example 5, 10 mg/kg once daily, after 21 days. From the text:
(§2) IL6 and IL8 lentiviruses were made using IL6 and IL8 plasmids (available from Genecopoeia, Rockville, Md., USA), respectively. A549 cells were divided into three groups with one group receiving a vector control, one group being infected with the IL6 lentivirus and the third group being infected with the IL8 lentivirus. The later two groups formed cell pools with stable expression of exogenous IL6 and IL8, respectively.
(§3) Cells from the aforementioned four groups and parental A549 and H460a cells were used to make xenograft models using the procedure described in Example 1. […]

Test [3] relates to A549 cells overexpressing IL6 (xenograft). Put plainly: in vivo activity in IL6-overexpressing A549 xenograft model. On the set-up: species or system human. Conditions: Example 5, 10 mg/kg once daily, after 21 days.
Excerpt: as §2, §3

For test [4], the system named is AsPC-1 (pancreatic) xenograft. Put plainly: in vivo activity in AsPC-1 xenograft model. On the set-up: species or system human. Conditions: AsPC-1 (pancreatic) xenograft in nude mice; 10 mg/kg daily po; 21 days following commencement of treatment. The method, then:
(§4) Female nu/nu (nude) mice obtained from Charles River Laboratories (Wilmington, Mass.) or female SCID-beige mice (Taconic, Germantown, N.Y.) were used (10 mice/group) when they were approximately 8 to 14 weeks old and weighed approximately 23 to 25 grams. All animal experiments were performed in accordance with protocols approved by the Roche Animal Care and Use Committee (RACUC).
(§5) The human cancer cell lines LOVO, BxPC3, HCT-116, A549, AsPC-1, MiaPaCa-2, and Calu-6 were purchased from the American Type Culture Collection. The H460a cell line was a gift from Dr. Jack Roth (M. D. Anderson Medical Center).
(§6) For xenograft implantation, cells were harvested using 0.05% trypsin, washed and centrifuged in culture medium, and resuspended in either a 1:1 mixture of phosphate buffered saline (PBS) and Matrigel (BxPC-3) or PBS alone (A549, H460a, LOVO, Calu-6, HCT-116, MiaPaca-2, and AsPC-1) at a concentration of 1.5-5×10^7 cells per mL. […]
(§7) Tumor measurements and mouse weights were taken twice per week. Statistical analysis was determined by Mann-Whitney Rank Sum Test, 1-way ANOVA, and post hoc Bonferroni t-test (SigmaStat, version 2.0, Jandel Scientific, San Francisco, Calif.). […]
(§8) Tumor growth inhibition (TGI %) was measured 21 days following the commencement of the treatment.

Test [5] relates to MiaPaCa-2 (pancreatic) xenograft. Put plainly: in vivo activity in MiaPaCa-2 xenograft model. The conditions noted are these: MiaPaCa-2 (pancreatic) xenograft in nude mice; 10 mg/kg daily po; 21 days following commencement of treatment. Also on record: species or system human. How it is done:
as §4, §5, §6, §7, §8

In test [6] the test system is A549 vector control tumors. The experiment in a line: in vivo activity in A549 vector control xenograft model. The conditions noted are these: Example 5, 10 mg/kg once daily, after 21 days. On the set-up: species or system human.
Excerpt: as §2, §3

Test [7] deals with HCT-116 (colon) xenograft. Put plainly: in vivo activity in HCT-116 xenograft model. On the set-up: species or system human. Conditions: HCT-116 (colon) xenograft in nude mice; 10 mg/kg daily po; 21 days following commencement of treatment. The method, then:
as §4, §5, §6, §7, §8

In test [8] the test system is genes associated with angiogenesis. Conditions: Luistro et al., Cancer Research 69:7672-80 (2009), cited from earlier work.
The test system of another test is H460a (NSCLC) xenograft. The experiment in a line: in vivo activity in H460a xenograft model. Also on record: species or system human. How it is done: as §4, §5
For xenograft implantation, cells were harvested using 0.05% trypsin, washed and centrifuged in culture medium, and resuspended in either a 1:1 mixture of phosphate buffered saline (PBS) and Matrigel (BxPC-3) or PBS alone (A549, H460a, LOVO, Calu-6, HCT-116, MiaPaca-2, and AsPC-1) at a concentration of 1.5-5×10^7 cells per mL. A volume of 0.2 mL cell suspension (7.5×10^6 cells for A549, 1×10^7 cells for H460a, 3×10^6 cells for Calu-6 and HCT116, 5×10^6 cells for BxPC3 and AsPC-1, 6×10^6 cells for MiaPaca-2, and 5×10^6 for LOVO) per mouse was implanted subcutaneously in the right flank. All xenograft models were implanted into nude mice with the exception of BxPC3, which was implanted into SCID-beige mice. Tumors were allowed to grow for 8 to 26 days post implant when mean volume reached ˜100-150 mm^3, after which animals were randomized into treatment groups.
Compound I (synthesized according to the procedure described in WO2005/023772) was formulated as a suspension in 1.0% Klucel in water with 0.2% Tween®-80 for oral (po) administration. Formulated compound and vehicle were prepared weekly and stored at 4° C. In the Calu-6 xenograft model, Compound I was dosed at 60 mg/kg daily every other week for 4 weeks (7+/7−×2 cycles). All other xenograft models were dosed with Compound I at 10 mg/kg daily.
Tumor measurements and mouse weights were taken twice per week. Statistical analysis was determined by Mann-Whitney Rank Sum Test, 1-way ANOVA, and post hoc Bonferroni t-test (SigmaStat, version 2.0, Jandel Scientific, San Francisco, Calif.). Differences between groups were considered significant when the probability value (p) was ≦0.05.
as §8, §3

Test [9] has as its system BxPC3 (pancreatic) xenograft. The experiment in a line: in vivo activity in BxPC3 xenograft model. On the set-up: species or system human. The conditions noted are these: BxPC3 (pancreatic) xenograft in SCID-beige mice; 10 mg/kg daily po; 21 days following commencement of treatment. How it is done: as §4, §5, §6, §7, §8
The next test relates to Hes1 mRNA. The experiment in a line: downregulation of Hes1 mRNA following in vitro treatment (Notch signaling blockage). The class given is cell-based, human. From the text: Expression of IL6 and IL8 was then quantified in the BxPC3, HCT-116, A549, AsPC-1, MiaPaCa-2, and Calu-6 cell lines by measuring the level of mRNA using qRT-PCR. RNA isolation, and reverse transcription-PCR (RT-PCR) were done using standard laboratory techniques. The catalogue numbers for each probe set were Hes1 (Hs00172878_ml), ACTB (4333762F), IL6 (Hs00174131_ml), IL8 (Hs00174103_ml) and 18S (4319413E).

In a further test the test system is A549 (NSCLC) xenograft. Put plainly: in vivo activity in A549 xenograft model. On the set-up: species or system human. How it is done:
as §4, §5, §6, §7
Tumor growth inhibition (TGI %) was measured 21 days following the commencement of the treatment. […]

A further test concerns Calu-6 (NSCLC) xenograft. The experiment in a line: in vivo activity in Calu-6 xenograft model. Conditions: Calu-6 (NSCLC) xenograft in nude mice; 60 mg/kg daily every other week for 4 weeks (7+/7- x 2 cycles) po; 21 days following commencement of treatment. Also on record: species or system human. The method, then: as §4, §5, §6, §7, §8
In test [10] the test system is 1:1 mixture of A549 overexpressing IL6 or IL8 (xenograft). Put plainly: in vivo activity in xenograft of 1:1 mixture of IL6- and IL8-overexpressing A549 cells. On the set-up: species or system human. The conditions noted are these: Example 5; tumors from 1:1 mixture of A549 overexpressing IL6 or IL8; 10 mg/kg once daily; after 21 days.
Excerpt: as §2
A portion of the IL6 overexpressing A549 cells and the IL8 overexpressing A549 cells were then combined to form a fourth group containing a 1:1 mixture of such cells.
as §3

In another test the test system is LOVO (colon) xenograft. Put plainly: in vivo activity in LOVO xenograft model. Conditions: LOVO (colon) xenograft in nude mice; 10 mg/kg daily po; 21 days following commencement of treatment. On the set-up: species or system human. How it is done:
as §4, §5, §6, §7, §8

A further test deals with LOX (melanoma) xenograft. The experiment in a line: in vivo activity in LOX xenograft model. Also on record: species or system human. The conditions noted are these: LOX xenograft in nude mice; 10 mg/kg once daily for 11 days. The method, then: as §1
Test [11] deals with IL8-knockdown H460a xenograft. The experiment in a line: in vivo activity in IL8-knockdown H460a xenograft model. Also on record: species or system human. Conditions: Example 6; IL8-knockdown H460a tumors; 10 mg/kg once daily for 21 days. From the text: Lentiviruses were made using pLKO.1-based anti-IL8 shRNA (purchased from Open Biosystems) and used to stably knockdown IL8 expression in H460a cells. […] IL8-knockdown H460a cells, however, still had more than 2-fold higher IL8 levels compared to A549 cells.
Parental H460a cells and IL8-knockdown H460a cells were then implanted as xenografts in mice using the procedures described in Example 1. The mice were then randomized into different treatment groups (10 mice/group): H460a xenograft mice receiving vehicle once daily, H460a xenograft mice receiving Compound I at 10 mg/kg once daily, IL8-knockdown H460a xenograft mice receiving vehicle once daily, and IL8-knockdown H460a xenograft mice receiving Compound I at 10 mg/kg once daily.

The subject of test [12] is H460a, A549 parental, A549 control, A549 IL6, A549 IL8 and 1:1 mixture xenograft models. Put plainly: Taxol positive drug control across the xenograft models of Example 5. The class given is in vivo, human. Conditions: 30 mg/kg, all xenograft models of FIG. 5.
Excerpt: as §3

On to `CC(C)(C(=O)NCC(F)(F)C(F)(F)F)C(=O)N[C@@H]1C(=O)Nc2ccccc2-c2ccccc21` [Compound I, 2,2-dimethyl-N-((S)-6-oxo-6,7-dihydro-5H-dibenzo[b,d]azepin-7-yl)-N′-(2,2,3,3,3-pentafluoro-propyl)-malonamide], for which the TGI in test [1] is on record as −17%; in test [2], 45%; in test [3], 32%; in test [6], 61%; with H460a (NSCLC) xenograft (Example 5, H460a xenograft (high IL6 and IL8), 10 mg/kg once daily, after 21 days), 9%; in the test on H460a (NSCLC) xenograft (Example 6, parental H460a tumors, 10 mg/kg once daily for 21 days) it was 5%. Further, the TGI in the test on H460a (NSCLC) xenograft (Example 7, H460a xenograft, Compound I 10 mg/kg once daily, anti-IL8 antibody 20 mg/kg twice weekly) was found to be 10%; in the test on H460a (NSCLC) xenograft (Example 8, H460a xenograft, Compound I 10 mg/kg once daily, anti-IL6 antibody 20 mg/kg twice weekly), 43%; in the test on A549 (NSCLC) xenograft (Example 5, parental A549 tumors, 10 mg/kg once daily, after 21 days), 71%; in test [10] it was 8%; in the test on LOX (melanoma) xenograft, 15%; in test [11] it was 24%. In addition, the TGI % amounted to 58% in [4]; 53% in [5]; 76% in test [7]; 8% in the test with H460a (NSCLC) xenograft (H460a (NSCLC) xenograft in nude mice, 10 mg/kg daily po, 21 days following commencement of treatment (Example 1)); 82% in [9]; 70% in the test on A549 (NSCLC) xenograft (A549 (NSCLC) xenograft in nude mice, 10 mg/kg daily po, 21 days following commencement of treatment). The TGI % with Calu-6 (NSCLC) xenograft is 42%; in the test on LOVO (colon) xenograft it was 83%. Further, the “change in the angiogenic gene profile” value in [8] (H460a xenograft) is given as “little change”. In [8] (treated xenografts), the “expression of genes associated with angiogenesis” value is “reduced expression”. The “downregulation of Hes1 mRNA” value with Hes1 mRNA (A549 overexpressing IL6), in the test with Hes1 mRNA (A549 overexpressing IL8), in the test with Hes1 mRNA (LOX cells) and in the test on Hes1 mRNA (U87MG cells) was “properly maintained” in each case.

Turning to `CC(=O)O[C@H]1C(=O)[C@@]2(C)[C@H]([C@H](OC(=O)c3ccccc3)[C@]3(O)C[C@H](OC(=O)[C@H](O)[C@@H](NC(=O)c4ccccc4)c4ccccc4)C(C)=C1C3(C)C)[C@]1(OC(C)=O)CO[C@@H]1C[C@@H]2O` [Taxol®], the “TGI (positive drug control)” value in test [12] is on record as “consistent TGI across the various models”.
